In the experiment the target is human σ1 receptor and human μ-opioid receptor. Nature of the experiment: Human σ1 receptor radioligand assay and human μ-opioid receptor radioligand assay (μ and σ1 dual binding). On the set-up: key to μ and σ1 dual binding: +: Both Ki-μ and Ki-σ1>=500 nM; ++: One Ki<500 nM while the other Ki is >=500 nM; +++: Both Ki-μ and Ki-σ1<500 nM; ++++: Both Ki-μ and Ki-σ1<100 nM.

Where [1] appears, read: combined class for Ki-μ ([3H]-DAMGO, CHO-K1 membranes) and Ki-σ1 ([3H](+)-pentazocine, HEK-293 membranes).

Read-outs that look alike come from different tables or passages of the source.

One may read the Ki as the dissociation constant of the complex between target and ligand, obtained from inhibition or displacement. `CCN(C(=O)CN1CCC2(CC1)c1ccccc1CN2C)C(C)C` [Example 157, N-ethyl-N-isopropyl-2-(2-methylspiro[isoindoline-1,4′-piperidine]-1′-yl)acetamide]: the Ki under setting [1] is at least 500 nM.
Take `CC(C)CN(C)C(=O)CN1CCC2(CC1)c1ccccc1CCN2C` [Example 87, N-isobutyl-N-methyl-2-(2-methyl-3,4-dihydro-2H-spiro[isoquinoline-1,4′-piperidine]-1′-yl)acetamide]: the “μ and σ1 dual binding” value is “++”.
Compound `CN1CCc2ccccc2C12CCN(CC(=O)N1CCCCC1)CC2` [Example 71, 2-(2-methyl-3,4-dihydro-2H-spiro[isoquinoline-1,4′-piperidine]-1′-yl)-1-(piperidin-1-yl)ethanone] showed a Ki below 500 nM.
As to `CN1Cc2ccccc2C12CCN(CC1CCOCC1)CC2` [Example 141, 2-Methyl-1′-((tetrahydro-2H-pyran-4-yl)methyl)spiro[isoindoline-1,4′-piperidine]], the “μ and σ1 dual binding” value was “++”.
As to `CC(C)CN(C(=O)CN1CCC2(CC1)c1ccccc1CCN2C)C(C)C` [Example 110, N-isobutyl-N-isopropyl-2-(2-methyl-3,4-dihydro-2H-spiro[isoquinoline-1,4′-piperidine]-1′-yl)acetamide], the inhibitory constant (Ki) under setting [1] was at least 500 nM.
Consider `COC1CCN(C(=O)CN2CCC3(CC2)c2ccccc2CCN3C)CC1` [Example 60, 1-(4-methoxypiperidin-1-yl)-2-(2-methyl-3,4-dihydro-2H-spiro[isoquinoline-1,4′-piperidine]-1′-yl)ethanone], for which the “μ and σ1 dual binding” value is given as “++”.
In the case of `FC(F)(F)CN1CCc2ccccc2C12CCN(CCc1ccncc1)CC2` [Example 136, 1′-(2-(pyridin-4-yl)ethyl)-2-(2,2,2-trifluoroethyl)-3,4-dihydro-2H-spiro[isoquinoline-1,4′-piperidine]], the Ki is below 500 nM.
In the case of `CN(Cc1ccccn1)C(=O)CN1CCC2(CC1)c1ccccc1CCN2C` [Example 116, N-methyl-2-(2-methyl-3,4-dihydro-2H-spiro[isoquinoline-1,4′-piperidine]-1′-yl)-N-(pyridin-2-ylmethyl)acetamide], the “μ and σ1 dual binding” value is on record as “++”.
`CCN1CCc2ccccc2C12CCN(CC(=O)N1CCCC(F)(F)C1)CC2` [Example 151, 1-(3,3-difluoropiperidin-1-yl)-2-(2-ethyl-3,4-dihydro-2H-spiro[isoquinoline-1,4′-piperidine]-1′-yl)ethanone] gave a Ki below 500 nM.
`CC(=O)N1CCc2ccccc2C12CCN(CCOc1ccncc1)CC2` [Example 44, 1-(1′-(2-(pyridin-4-yloxy)ethyl)-3,4-dihydro-2H-spiro[isoquinoline-1,4′-piperidine]-2-yl)ethanone]: the “μ and σ1 dual binding” value is on record as “++”.
In turn, `CN1CCc2ccccc2C12CCN(CC(=O)c1ccccc1)CC2` [Example 69, 2-(2-methyl-3,4-dihydro-2H-spiro[isoquinoline-1,4′-piperidine]-1′-yl)-1-phenylethanone] returned a Ki below 500 nM.

The values are drawn from patent US10407428B2, “Spiro-isoquinoline-1,4′-piperidine compounds having multimodal activity against pain” (ESTEVE PHARMACEUTICALS, S.A., priority 2014, dated 2019).
